{"source": "patent US12139520B2", "about": "(priority 2020, dated 2024)", "note": "Numbered stars: 1 amine (or outer) side, 2 acyl side, 3 side chain; on linkers, the order of the positions; unused ones are H or OH. Bridge positions count the residues as written; N and C are the ends. Peptide text beside a SMILES is read from it. * marks the point of attachment. C20 diacid = O=C(O)CCCCCCCCCCCCCCCCCCC(=O)*; γGlu = O=C(O)[C@H](CCC(=O)[*:2])N[*:1]"}
{"molecular_target": "T1, hAMY3 receptor (Homo sapiens, UniProt O60896+P30988)", "T1 sequence (P30988 25-474)": "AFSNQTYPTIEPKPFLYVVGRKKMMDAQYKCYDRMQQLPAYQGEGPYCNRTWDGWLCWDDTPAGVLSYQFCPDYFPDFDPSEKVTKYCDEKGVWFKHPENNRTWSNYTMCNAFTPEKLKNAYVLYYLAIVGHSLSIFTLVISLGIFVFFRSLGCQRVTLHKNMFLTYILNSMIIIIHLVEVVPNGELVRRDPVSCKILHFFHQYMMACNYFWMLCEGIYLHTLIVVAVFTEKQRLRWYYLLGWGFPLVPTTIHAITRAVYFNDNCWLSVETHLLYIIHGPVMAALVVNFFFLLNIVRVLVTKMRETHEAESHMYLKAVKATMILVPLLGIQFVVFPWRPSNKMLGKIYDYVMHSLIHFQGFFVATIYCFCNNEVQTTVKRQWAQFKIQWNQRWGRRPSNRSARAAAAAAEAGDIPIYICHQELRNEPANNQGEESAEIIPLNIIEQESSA", "T1 sequence (O60896 24-148 partner)": "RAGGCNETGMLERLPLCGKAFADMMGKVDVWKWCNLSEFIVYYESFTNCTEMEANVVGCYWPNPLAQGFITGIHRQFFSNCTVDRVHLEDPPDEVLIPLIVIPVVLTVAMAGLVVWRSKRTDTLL", "test": "cAMP assay for in vitro receptor activation, hAMY3-R", "format": "cell-based", "conditions": "cAMP assay, hAMY3 receptor; read-out: hAMY3R EC50", "how_it_was_run": "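Accumulated cAMP was detected by time-resolved FRET one hour after reagent addition. Beforehand, hAMY3-R-overexpressing monoclonal cells (2000/well, DPBS, 0.05% casein, 0.5 mM IBMX) received graded doses of compound for 30 min at room temperature; human amylin served as positive control.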", "units": {"EC50": "nM"}}
{"smiles": "CC(C)C[C@H](NC(=O)[C@H](CCCNC(=N)N)NC(=O)[C@H](CCC(N)=O)NC(=O)[C@@H](NC(=O)[C@@H](NC(=O)[C@@H]1CSSC[C@H](NC(=O)CNC(=O)CC[C@H](NC(=O)CCCCCCCCCCCCCCCCCCC(=O)O)C(=O)O)C(=O)N[C@@H](CCCNC(=N)N)C(=O)N[C@@H](Cc2ccccc2)C(=O)NCC(=O)N[C@@H]([C@@H](C)O)C(=O)N1)[C@@H](C)O)C(C)C)C(=O)N[C@@H](C)C(=O)N[C@@H](Cc1c[nH]cn1)C(=O)N[C@@H](Cc1ccccc1)C(=O)N[C@@H](CC(C)C)C(=O)N[C@@H](Cc1ccc(O)cc1)C(=O)N[C@@H](CCC(N)=O)C(=O)N[C@@H](Cc1ccccc1)C(=O)N[C@H](C(=O)N[C@@H](CC(=O)O)C(=O)N[C@@H](CCCCN)C(=O)N[C@@H](CC(=O)O)C(=O)N[C@@H](CCCCN)C(=O)N[C@@H](CC(=O)O)C(=O)N[C@@H](CC(N)=O)C(=O)N[C@H](C(=O)N[C@@H](C)C(=O)N1CCC[C@H]1C(=O)N[C@@H](CCCNC(=N)N)C(=O)N[C@H](C(=O)N[C@@H](CCCCN)C(=O)N[C@H](C(=O)NCC(=O)N[C@@H](CO)C(=O)N[C@@H](CC(N)=O)C(=O)NCC(=O)N[C@@H](Cc1ccc(O)cc1)C(N)=O)C(C)C)[C@@H](C)O)C(C)C)[C@@H](C)O", "note": "[compound 223] ({C20 diacid-γGlu}-GCRFGTCTVQRLAHFLYQFTDKDKDNVAPRTKVGSNGY-NH2; disulfide 2-7)", "EC50": 0.186}
{"smiles": "CC[C@H](C)[C@H](NC(=O)[C@H](CCC(N)=O)NC(=O)[C@H](Cc1c[nH]cn1)NC(=O)[C@H](C)NC(=O)[C@H](CC(C)C)NC(=O)[C@H](CCCNC(=N)N)NC(=O)[C@H](CCC(N)=O)NC(=O)[C@@H](NC(=O)[C@@H](NC(=O)[C@@H]1CSSC[C@H](NC(=O)[C@@H](N)CCCCN)C(=O)N[C@@H](CC(N)=O)C(=O)N[C@@H](Cc2ccccc2)C(=O)N[C@@H](C)C(=O)N[C@@H]([C@@H](C)O)C(=O)N1)[C@@H](C)O)C(C)C)C(=O)N[C@@H](Cc1ccc(O)cc1)C(=O)N[C@@H](CCC(N)=O)C(=O)N[C@@H](Cc1ccccc1)C(=O)N[C@H](C(=O)N[C@@H](CC(=O)O)C(=O)N[C@@H](CCCCN)C(=O)N[C@@H](CC(=O)O)C(=O)N[C@@H](CCCCN)C(=O)N[C@@H](CC(=O)O)C(=O)N[C@@H](CC(N)=O)C(=O)N[C@H](C(=O)N[C@@H](C)C(=O)N1CCC[C@H]1C(=O)N[C@@H](CCCNC(=N)N)C(=O)N[C@H](C(=O)N[C@@H](CCCCN)C(=O)N[C@H](C(=O)NCC(=O)N[C@@H](CO)C(=O)N[C@@H](CC(N)=O)C(=O)NCC(=O)N[C@@H](Cc1ccc(O)cc1)C(N)=O)C(C)C)[C@@H](C)O)C(C)C)[C@@H](C)O", "note": "[compound 361] (H-KCNFATCTVQRLAHQIYQFTDKDKDNVAPRTKVGSNGY-NH2; disulfide 2-7; N-terminus assumed)", "EC50": 0.006}
{"smiles": "CC[C@H](C)[C@H](NC(=O)[C@H](CCCCN)NC(=O)[C@H](CO)NC(=O)[C@H](CCCNC(=N)N)NC(=O)[C@@H]1CCCN1C(=O)[C@H](C)NC(=O)[C@@H](NC(=O)[C@H](CC(N)=O)NC(=O)[C@H](CC(=O)O)NC(=O)[C@H](CCCCN)NC(=O)[C@H](CC(=O)O)NC(=O)[C@H](CCCCN)NC(=O)[C@H](CC(=O)O)NC(=O)[C@@H](NC(=O)[C@H](Cc1ccccc1)NC(=O)[C@H](CCC(N)=O)NC(=O)[C@@H](NC(=O)[C@H](CC(C)C)NC(=O)[C@H](Cc1ccccc1)NC(=O)[C@H](CC(N)=O)NC(=O)[C@H](C)NC(=O)[C@H](CC(C)C)NC(=O)[C@H](CCCNC(=N)N)NC(=O)[C@H](CCC(N)=O)NC(=O)[C@@H](NC(=O)[C@H](C)NC(=O)[C@@H]1CSSC[C@H](NC(=O)[C@@H](N)CCCCN)C(=O)N[C@@H](CC(N)=O)C(=O)N[C@@H](Cc2ccccc2)C(=O)N[C@@H](C)C(=O)N[C@@H]([C@@H](C)O)C(=O)N1)[C@@H](C)O)C(C)C)[C@@H](C)O)C(C)C)C(=O)NCC(=O)N1CCC[C@H]1C(=O)N[C@@H](CCC(N)=O)C(=O)NCC(=O)N[C@@H](Cc1ccc(O)cc1)C(N)=O", "note": "[compound 363] (H-KCNFATCATQRLANFLVQFTDKDKDNVAPRSKIGPQGY-NH2; disulfide 2-7; N-terminus assumed)", "EC50": 0.01}
{"smiles": "CC[C@H](C)[C@H](NC(=O)[C@H](CC(N)=O)NC(=O)[C@@H](NC(=O)[C@H](CCCNC(=N)N)NC(=O)[C@@H]1CCCN1C(=O)[C@H](C)NC(=O)[C@@H](NC(=O)[C@H](CC(N)=O)NC(=O)[C@H](CC(=O)O)NC(=O)[C@H](CCCCN)NC(=O)[C@H](CC(=O)O)NC(=O)[C@H](CCCCN)NC(=O)[C@H](CC(=O)O)NC(=O)[C@@H](NC(=O)[C@H](Cc1ccccc1)NC(=O)[C@H](CCC(N)=O)NC(=O)[C@H](Cc1ccc(O)cc1)NC(=O)[C@H](CC(C)C)NC(=O)[C@H](Cc1ccccc1)NC(=O)[C@H](Cc1c[nH]cn1)NC(=O)[C@H](C)NC(=O)[C@H](CC(C)C)NC(=O)[C@H](CCCNC(=N)N)NC(=O)[C@H](CCC(N)=O)NC(=O)[C@@H](NC(=O)[C@@H](NC(=O)[C@@H]1CSSC[C@H](NC(=O)CN)C(=O)N[C@@H](CCCNC(=N)N)C(=O)N[C@@H](Cc2ccccc2)C(=O)NCC(=O)N[C@@H]([C@@H](C)O)C(=O)N1)[C@@H](C)O)C(C)C)[C@@H](C)O)C(C)C)[C@@H](C)O)C(=O)NCC(=O)N1CCC[C@H]1C(=O)N[C@@H](CCC(N)=O)C(=O)NCC(=O)N[C@@H](Cc1ccc(O)cc1)C(N)=O", "note": "[compound 364] (H-GCRFGTCTVQRLAHFLYQFTDKDKDNVAPRTNIGPQGY-NH2; disulfide 2-7)", "EC50": 0.01}
{"smiles": "CC[C@H](C)[C@H](NC(=O)[C@H](CCCCN)NC(=O)[C@@H](NC(=O)[C@H](CCCNC(=N)N)NC(=O)[C@@H]1CCCN1C(=O)[C@H](C)NC(=O)[C@@H](NC(=O)[C@H](CC(N)=O)NC(=O)[C@H](CC(=O)O)NC(=O)[C@H](CCCCN)NC(=O)[C@H](CC(=O)O)NC(=O)[C@H](CCCCN)NC(=O)[C@H](CC(=O)O)NC(=O)[C@@H](NC(=O)[C@H](Cc1ccccc1)NC(=O)[C@H](CCC(N)=O)NC(=O)[C@H](Cc1ccc(O)cc1)NC(=O)[C@H](CC(C)C)NC(=O)[C@H](Cc1ccccc1)NC(=O)[C@H](Cc1c[nH]cn1)NC(=O)[C@H](C)NC(=O)[C@H](CC(C)C)NC(=O)[C@H](CCCNC(=N)N)NC(=O)[C@H](CCC(N)=O)NC(=O)[C@@H](NC(=O)[C@@H](NC(=O)[C@@H]1CSSC[C@H](NC(=O)CN)C(=O)N[C@@H](CCCNC(=N)N)C(=O)N[C@@H](Cc2ccccc2)C(=O)NCC(=O)N[C@@H]([C@@H](C)O)C(=O)N1)[C@@H](C)O)C(C)C)[C@@H](C)O)C(C)C)[C@@H](C)O)C(=O)NCC(=O)N1CCC[C@H]1C(=O)N[C@@H](CCC(N)=O)C(=O)NCC(=O)N[C@@H](Cc1ccc(O)cc1)C(N)=O", "note": "[compound 365] (H-GCRFGTCTVQRLAHFLYQFTDKDKDNVAPRTKIGPQGY-NH2; disulfide 2-7)", "EC50": 0.012}
